The record followed here is PMC3705312, “Extracts, Anthocyanins and Procyanidins from Aronia melanocarpa as Radical Scavengers and Enzyme Inhibitors” (Nutrients, 2013).

A short description of assay [1]: Scavenging of the diphenylpicrylhydrazyl (DPPH) radical. Particulars: average ± SD; for DPPH % scavenging at 10.4 µg/mL: sample concentration 10.4 µg/mL, 5 min, values marked ^; for DPPH IC50 (concentration to give 50% scavenging): 5 min reaction, A517, values marked #, triplicate. Background: DPPH is a stable violet radical that fades when it is reduced.
Procedure: Scavenging activity towards the DPPH radical was carried out as previously described [18]. Briefly, to 2.95 mL of a methanolic solution of DPPH (A517 1.0), 50 µL of the test compound (dissolved in DMSO or MeOH) was added. The mixture was stirred, and the decrease in UV absorbance at 517 nm was measured over a period of 5 min. Percent radical scavenging was calculated as 100 × (Astart − Aend)/(Astart), where Astart is the absorbance before addition of the test compound and Aend is the absorbance value after 5 min of reaction time. Values were corrected for absorbance of the test substances.
A further assay has as its target T1, 15-LO from soybeans (Glycine max, UniProt P08170).
T1 construct: purchased Sigma-Aldrich
T1 sequence (P08170 1-839): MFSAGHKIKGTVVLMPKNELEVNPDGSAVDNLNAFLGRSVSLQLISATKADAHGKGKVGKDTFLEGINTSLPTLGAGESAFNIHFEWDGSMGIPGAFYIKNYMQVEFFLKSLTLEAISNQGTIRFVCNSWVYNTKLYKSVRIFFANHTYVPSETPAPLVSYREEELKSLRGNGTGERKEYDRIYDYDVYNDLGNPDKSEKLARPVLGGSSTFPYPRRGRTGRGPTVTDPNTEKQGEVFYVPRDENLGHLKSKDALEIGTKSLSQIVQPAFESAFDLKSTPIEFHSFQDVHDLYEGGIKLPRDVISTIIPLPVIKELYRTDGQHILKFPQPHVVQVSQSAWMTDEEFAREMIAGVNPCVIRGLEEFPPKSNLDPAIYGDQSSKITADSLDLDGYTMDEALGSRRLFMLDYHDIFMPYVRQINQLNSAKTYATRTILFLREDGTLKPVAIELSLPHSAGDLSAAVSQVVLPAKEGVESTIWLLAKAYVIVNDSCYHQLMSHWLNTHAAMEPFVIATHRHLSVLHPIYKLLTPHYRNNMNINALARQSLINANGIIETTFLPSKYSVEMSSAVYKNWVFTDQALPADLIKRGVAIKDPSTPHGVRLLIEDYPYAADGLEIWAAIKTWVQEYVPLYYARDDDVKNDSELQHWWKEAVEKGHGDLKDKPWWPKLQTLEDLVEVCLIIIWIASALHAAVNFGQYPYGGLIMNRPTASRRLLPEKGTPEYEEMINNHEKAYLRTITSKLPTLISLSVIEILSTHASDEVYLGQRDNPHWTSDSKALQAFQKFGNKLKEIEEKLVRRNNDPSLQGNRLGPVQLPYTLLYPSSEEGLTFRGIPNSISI
The assay is described as follows: Inhibition of 15-lipoxygenase (15-LO). Format: biochemical, soybean. Particulars: borate buffer pH 9.00, average ± SD, triplicate.

The target of the next assay is T2, XO from bovine milk (Bos taurus, UniProt P80457).
T2 construct: purchased Sigma-Aldrich; host or cells: bovine milk
The assay is described as follows: Inhibition of xanthine oxidase (XO), hypoxanthine as substrate. Format: biochemical. Particulars: average ± SD. The method, then:
(§1) Procyanidin B2 and B5 reference compounds were obtained from Plant Polyphenols LLC (Boyce, LA, USA). All other reagents were of the highest purity available.
The XO inhibitory activity with hypoxanthine as the substrate was measured spectrophotometrically based on the procedure of Noro et al., with some modifications. The assay mixture consisting of 50 µL of test compound (dissolved in DMSO or MeOH) or (for blanks) DMSO or MeOH alone, 1.85 mL of 50 mM sodium-potassium phosphate buffer (pH = 7.5) and 100 µL of enzyme solution (1.8 U/mL in 50 mM sodium-potassium phosphate buffer, pH = 7.5) was prepared immediately before use. Substrate solution (1.0 mL, 20 µg/mL hypoxanthine in distilled water) was added. The mixture was stirred, and the increase in absorbance at 290 nm was measured over a period of 5 min. Percent enzyme inhibition was calculated as 100 × [(∆A1 − ∆A2)/∆A1], where ∆A1 and ∆A2 are values for the increase in A290 for the sample without test substance and with test substance, respectively.

Assay [2] addresses T3, α-glucosidase from baker's yeast (Saccharomyces cerevisiae, UniProt P53341).
T3 construct: purchased Sigma-Aldrich
The assay is described as follows: biochemical. The settings on record: 15 min, pH 7.0, average ± SD, triplicate. Here is the method:
as §1
The α-glucosidase inhibitory activity was determined by a slight modification of the procedure reported by Matsui et al.. The enzyme solution was set at 800 mU/mL of α-glucosidase in a 50 mM phosphate buffer (pH = 7.0) containing 100 mM sodium chloride. For each assay, 20 µL of the test solution in DMSO or MeOH and 80 µL of the enzyme solution were preincubated at 37 °C for 5 min. The reaction was started by adding 1.9 mL of substrate solution (0.7 mM PNP-G in the buffer), and the solution was then incubated at 37 °C for 15 min. After the reaction had been stopped by adding 2.0 mL of a 0.5 M Tris solution, the absorbance of PNP released from PNP-G at 400 nm was measured. Percent enzyme inhibition was calculated as 100 × (AB − AS)/(AB), where AB and AS represent the absorbance of the blank and sample, respectively.

[3] abbreviates: linoleic acid 134 µM, read-out: 15-Lipoxygenase IC50 (converted).
Where [4] appears, read: 37 °C, read-out: α-Glucosidase IC50 (converted).
[5] abbreviates: read-out: Xanthine oxidase % inhibition at a concentration of 42 µg/mL, 42 µg/mL.

The structures appear in SMILES notation. Where two headings read alike, the source gives them in different places. Bounds are passed on as bounds.

T2 sequence (P80457 whole entry): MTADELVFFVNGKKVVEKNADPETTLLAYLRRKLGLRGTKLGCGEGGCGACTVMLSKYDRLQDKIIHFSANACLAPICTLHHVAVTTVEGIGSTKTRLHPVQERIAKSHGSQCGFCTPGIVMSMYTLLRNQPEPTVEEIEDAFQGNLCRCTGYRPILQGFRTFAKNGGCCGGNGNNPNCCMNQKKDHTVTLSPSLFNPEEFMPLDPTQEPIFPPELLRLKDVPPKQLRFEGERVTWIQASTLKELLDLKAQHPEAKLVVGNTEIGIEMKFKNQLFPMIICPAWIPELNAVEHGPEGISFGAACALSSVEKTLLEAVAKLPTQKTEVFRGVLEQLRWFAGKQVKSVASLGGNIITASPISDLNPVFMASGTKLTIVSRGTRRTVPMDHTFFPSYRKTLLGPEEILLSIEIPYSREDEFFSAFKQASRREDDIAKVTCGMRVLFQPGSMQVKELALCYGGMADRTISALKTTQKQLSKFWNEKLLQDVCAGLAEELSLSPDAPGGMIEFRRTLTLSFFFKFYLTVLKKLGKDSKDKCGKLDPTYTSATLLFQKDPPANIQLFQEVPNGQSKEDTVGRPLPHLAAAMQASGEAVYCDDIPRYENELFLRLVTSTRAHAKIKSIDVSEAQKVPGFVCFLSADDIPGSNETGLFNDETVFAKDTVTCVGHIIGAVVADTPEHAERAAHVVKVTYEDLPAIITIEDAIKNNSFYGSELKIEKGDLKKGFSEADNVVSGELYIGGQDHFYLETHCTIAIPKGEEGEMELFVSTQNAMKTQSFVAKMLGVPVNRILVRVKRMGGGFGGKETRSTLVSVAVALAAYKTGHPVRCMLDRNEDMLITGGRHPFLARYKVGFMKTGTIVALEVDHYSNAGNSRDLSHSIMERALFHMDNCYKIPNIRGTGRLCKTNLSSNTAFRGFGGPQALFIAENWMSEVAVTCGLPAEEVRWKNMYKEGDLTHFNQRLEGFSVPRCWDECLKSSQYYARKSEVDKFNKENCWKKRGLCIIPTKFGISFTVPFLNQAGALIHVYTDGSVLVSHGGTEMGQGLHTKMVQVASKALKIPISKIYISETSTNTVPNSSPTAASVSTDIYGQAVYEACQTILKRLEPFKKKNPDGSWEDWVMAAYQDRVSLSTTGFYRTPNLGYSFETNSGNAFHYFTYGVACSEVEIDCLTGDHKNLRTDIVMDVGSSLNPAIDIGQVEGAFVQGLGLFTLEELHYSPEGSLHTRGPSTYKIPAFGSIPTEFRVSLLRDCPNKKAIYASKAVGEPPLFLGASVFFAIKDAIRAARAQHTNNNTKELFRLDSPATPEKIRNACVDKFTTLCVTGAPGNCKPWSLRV
T3 sequence (P53341 whole entry): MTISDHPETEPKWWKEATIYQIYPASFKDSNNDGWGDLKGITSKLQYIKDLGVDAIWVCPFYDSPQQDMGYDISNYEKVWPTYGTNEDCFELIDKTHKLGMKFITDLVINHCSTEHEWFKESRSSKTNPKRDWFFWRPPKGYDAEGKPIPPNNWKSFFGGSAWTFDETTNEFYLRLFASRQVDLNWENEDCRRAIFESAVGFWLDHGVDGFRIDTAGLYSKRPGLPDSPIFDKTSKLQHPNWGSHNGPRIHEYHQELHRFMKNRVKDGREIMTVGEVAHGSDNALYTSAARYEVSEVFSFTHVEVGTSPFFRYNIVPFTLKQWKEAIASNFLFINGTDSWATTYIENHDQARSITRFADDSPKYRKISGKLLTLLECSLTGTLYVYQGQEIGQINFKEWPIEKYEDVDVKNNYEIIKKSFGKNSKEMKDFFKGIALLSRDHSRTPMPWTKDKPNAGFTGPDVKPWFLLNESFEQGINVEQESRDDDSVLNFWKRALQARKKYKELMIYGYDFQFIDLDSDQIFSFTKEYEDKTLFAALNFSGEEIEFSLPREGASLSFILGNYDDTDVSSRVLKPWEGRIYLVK

As to `OCC1OC(Oc2cc3c(O)cc(O)cc3[o+]c2-c2ccc(O)c(O)c2)C(O)C(O)C1O` (centres unmarked) [Compound 1, cyanidin 3-galactoside], the “DPPH % scavenging at 10.4 µg/mL” value in assay [1] was 39.0 ± 2.9 ^^ %. Also, the IC50 (commonly the concentration needed to halve the response being measured) at 15-LO from soybeans (setting [3]) was 159 µM; in assay [2] (setting [4]), 3.43 µM. Besides, on XO from bovine milk (read-out: Xanthine oxidase % inhibition at a concentration of 17 µg/mL, 17 µg/mL), the inhibition at 17 µg/mL was 11.9 ± 4.4%.
On to `OCC1OC(Oc2cc3c(O)cc(O)cc3[o+]c2-c2ccc(O)c(O)c2)C(O)C(O)C1O` (centres unmarked) [Compound 2, cyanidin 3-glucoside], for which the “DPPH % scavenging at 10.4 µg/mL” value in assay [1] is 37.0 ± 0.9 ^^ %. In addition, the IC50 on 15-LO from soybeans (setting [3]) was 163 µM; in assay [2] (setting [4]) it was 1.94 µM. The “Xanthine oxidase % inhibition at a concentration of 17 µg/mL” value on XO from bovine milk is on record as 20.9 ± 3.4%.
The like results for `Oc1cc(O)c2cc(OC3OCC(O)C(O)C3O)c(-c3ccc(O)c(O)c3)[o+]c2c1` (centres unmarked) [Compound 3, cyanidin 3-arabinoside] were, in that order, 40.0 ± 0.4 ^^ %, 140 µM, 0.882 µM and 39.1 ± 2.1%.
The matching figures for `Oc1cc(O)c2cc(OC3OCC(O)C(O)C3O)c(-c3ccc(O)c(O)c3)[o+]c2c1` (centres unmarked) [Compound 4, cyanidin 3-xyloside]: 25.0 ± 5.0 ^^ %, > 198 µM, 13.1 µM and 11.4 ± 2.8%.
Regarding `Oc1cc(O)c2c(c1)O[C@H](c1ccc(O)c(O)c1)[C@H](O)[C@H]2c1c(O)cc(O)c2c1O[C@H](c1ccc(O)c(O)c1)[C@H](O)C2` [Compound 5, procyanidin B2], in assay [1], the “DPPH IC50 (concentration to give 50% scavenging)” value is 4.7 ± 0.3 ^# µg/mL. Moreover, the IC50 at 15-LO from soybeans (15-Lipoxygenase IC50, linoleic acid 134 µM) was 113 µM; in assay [2] (α-Glucosidase IC50, 37 °C) it was 8.12 µM. Moreover, the inhibition at 42 µg/mL at XO from bovine milk (42 µg/mL, read-out: Xanthine oxidase % inhibition at a concentration of 42 µg/mL) came out at 12.7 ± 2.8%.
`Oc1cc(O)c2c(c1)O[C@H](c1ccc(O)c(O)c1)[C@H](O)[C@H]2c1c(O)cc2c(c1O)C[C@@H](O)[C@@H](c1ccc(O)c(O)c1)O2` [Compound 6, epi-(4β→6)-epi (B5)]: in assay [1], the “DPPH IC50 (concentration to give 50% scavenging)” value was 5.2 ± 0.1 ^# µg/mL. Besides, the IC50 at 15-LO from soybeans (setting [3]) was 125 µM; in assay [2] (setting [4]), 9.51 µM. Moreover, the inhibition at 42 µg/mL at XO from bovine milk (setting [5]) is 6.6 ± 0.7%.
Turning to `Oc1cc(O)c2c(c1)O[C@H](c1ccc(O)c(O)c1)[C@H](O)[C@H]2c1c(O)cc(O)c2c1O[C@H](c1ccc(O)c(O)c1)[C@H](O)[C@H]2c1c(O)cc(O)c2c1O[C@H](c1ccc(O)c(O)c1)[C@H](O)C2` [Compound 7, epi-(4β→8)-epi-(4β→8)-epi (C1)], the “DPPH IC50 (concentration to give 50% scavenging)” value in assay [1] is reported as 3.2 ± 0.1 ^# µg/mL. The IC50 is 66.5 µM at 15-LO from soybeans (setting [3]) and 4.38 µM in assay [2] (α-Glucosidase IC50, 37 °C). For the same compound, at XO from bovine milk (setting [5]), the inhibition at 42 µg/mL is 15.5 ± 1.5%.
Regarding `O=c1c(O)c(-c2ccc(O)c(O)c2)oc2cc(O)cc(O)c12` [Quercetin, quercetin, reference compound], the “DPPH IC50 (concentration to give 50% scavenging)” value in assay [1] is on record as 3.0 ± 0.2 ^# µg/mL.
